According to PubChem BioAssay (NCI):
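Step 1: Grow cells in 96-well plates. Step 2: Expose to compound for 48 hours at 5 concentrations. Step 3: Interpolate endpoints linearly; if unreached, use highest concentration. The concentration for 50% growth inhibition is given as GI50. At the TGI there is no net growth.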

Assays:
Experiment in all cases: NCI tumour cell line growth inhibition, 48 h
[1] = tested on: HT29 colon
[2] = tested on: M14 melanoma
[3] = tested on: MOLT-4 leukemia
[4] = tested on: RPMI-8226 leukemia
[5] = tested on: RXF 393 renal
[6] = tested on: SNB-19 CNS
[7] = tested on: SR leukemia
[8] = tested on: T-47D breast

Structure (SMILES) | GI50 [1] | TGI [1] | GI50 [2] | TGI [2] | GI50 [3] | TGI [3] | GI50 [4] | TGI [4] | GI50 [5] | TGI [5] | GI50 [6] | TGI [6] | GI50 [7] | TGI [7] | GI50 [8] | TGI [8]
O=C1C(=O)c2c(nc3ccc(C(F)(F)F)cn23)-c2ccccc21 | 0.923 µM | 3.61 µM | 0.18 µM | 0.329 µM | 0.237 µM | 0.602 µM | 0.169 µM | 0.53 µM | 0.254 µM | 0.616 µM | 0.303 µM | 0.763 µM | 0.225 µM | > 100 µM | 0.214 µM | 0.57 µM
CC(C)Cc1cnc(CC(C)C)c(=O)[nH]1 |  | > 100 µM |  | > 100 µM |  | > 100 µM |  | > 100 µM |  | > 100 µM |  | > 100 µM |  | > 100 µM |  | > 100 µM
N#Cc1nc(CCc2nc(C#N)c(N)o2)oc1N |  | > 10 µM |  | > 10 µM |  | > 10 µM |  | > 10 µM |  | > 10 µM |  | > 10 µM |  | > 10 µM |  | > 10 µM
Cn1c(I)c(C#C[Si](C)(C)C)c(=O)n(C(=O)c2ccccc2)c1=O | 3.32 µM | 15.8 µM | 1.99 µM | 4.16 µM | 1.25 µM | > 21.9 µM | 2.02 µM | > 20.4 µM | 1.64 µM | 3.14 µM | 15.5 µM | 31.8 µM | 1.89 µM |  | 2.03 µM | 5.91 µM
N=C1CCCC1C(=S)SCCC(N)=O (stereo not given) |  | > 100 µM |  | > 100 µM |  | > 100 µM |  | > 100 µM |  | > 100 µM |  | > 100 µM |  | > 100 µM |  | > 100 µM
COc1ccc(-c2nc3ccccc3s2)cc1OC |  | > 100 µM |  | > 100 µM |  | > 100 µM |  | > 100 µM |  |  |  | 28.3 µM |  | > 100 µM |  | 
COC1=CC(c2ccc[nH]2)=N/C1=C\c1[nH]c(C)c(C(=O)CCCCCCCCC(=O)O[C@H]2CC[C@H]3C4CCc5cc(O)ccc5C4CC[C@]23C)c1C (stereo not given in full) | 0.21 µM | > 50 µM | 0.235 µM | 2.23 µM | 0.428 µM | > 50 µM | 1.63 µM | > 50 µM | 1.21 µM | 24.5 µM | 3.16 µM | > 50 µM | 0.209 µM | > 20.2 µM |  | 
CCN(CC)C(=S)SSC(C)C | 14.8 µM | 29.8 µM | 6.1 µM | 20.6 µM | 3.76 µM | 25.4 µM | 1.94 µM | 18.4 µM | 16.5 µM | 31.5 µM | 31.8 µM | > 100 µM |  |  | 14.2 µM | 33.7 µM
Cc1cccc(N2C(=O)/C(=C/C(Cl)=C/c3ccc([N+](=O)[O-])cc3)SC2=S)c1C | 1.13 µM | > 100 µM | 2.39 µM | 6.86 µM | 1.02 µM | > 100 µM | 0.439 µM | 2.04 µM | 1.63 µM | 3.52 µM | 2.9 µM | > 100 µM | 0.404 µM | > 100 µM | 2.7 µM | > 100 µM
Nc1cc2c3c(cccc3c1)C(=O)N(CCN1CCCC1)C2=O | 3.11 µM | 22.2 µM | 3.92 µM | 21.7 µM | 1.74 µM | > 46.4 µM | 1.23 µM | 11.9 µM | 6.43 µM | 42.3 µM | 3.33 µM | 29 µM | 0.979 µM | > 22.4 µM | 1.93 µM | 9.36 µM
COC(=O)C(C(=O)C(=O)Nc1c(C)cccc1C(C)(C)C)c1nc2ccc(Cl)cc2[nH]c1=O (stereo not given) |  | > 100 µM |  | > 100 µM |  | > 100 µM |  | > 100 µM |  | > 100 µM |  | > 100 µM |  | > 100 µM |  | > 100 µM
COc1ccc2[nH]c(C(=O)N3CCN(C(=O)OCc4ccc5c(Cl)cc(Cl)c(O)c5n4)CC3)cc2c1 | 1.08 µM | 2.48 µM | 1.15 µM | 2.6 µM | 0.356 µM | 1.79 µM | 0.281 µM | 0.962 µM | 0.557 µM | 1.81 µM | 1.54 µM | 2.87 µM | 0.232 µM | 1.05 µM |  | 
O=C(Nc1ccc(Cl)cc1C(F)(F)F)C(=O)Nn1c(=S)[nH]c2ccccc2c1=O |  | > 100 µM |  | > 100 µM |  | > 100 µM |  | > 100 µM |  | > 100 µM |  |  |  |  |  | > 100 µM
Cc1ccc(/C(=N/Nc2ccc([N+](=O)[O-])cc2)Sc2cc(Cl)c(C)cc2S(N)(=O)=O)cc1 | 1.31 µM | 3.12 µM | 1.78 µM | 3.85 µM | 3.35 µM | 12.3 µM | 1.82 µM | 4.27 µM | 2.01 µM | 6.52 µM | 2.5 µM | > 20.5 µM | 0.945 µM | 3.55 µM | 3.14 µM | > 23.2 µM
C[C@@]1(F)[C@H](O)[C@@H](CO)O[C@H]1n1ccc(=O)[nH]c1=O | > 100 µM | > 100 µM | > 100 µM | > 100 µM | > 100 µM | > 100 µM | > 100 µM | > 100 µM | > 100 µM | > 100 µM | > 100 µM | > 100 µM | > 100 µM | > 100 µM | > 100 µM | > 100 µM
CCCCCCCC(=O)OCC/C=C/C1OC1C1OC(=O)/C=C\C=C\C(=O)N(C(C)=O)C(=O)/C=C(/C)CCC2OC2C1OC(=O)NC(C)=O (stereo not given) | 4.03 µM | 14.4 µM | 6.83 µM | > 25 µM | 10.1 µM | > 25 µM | 0.959 µM | 4.03 µM | 4.34 µM | 9.45 µM | > 25 µM | > 25 µM | 4.48 µM | > 25 µM |  | 
COC1=CC(=O)O/C1=C(\OC)C1OC1c1ccccc1 (stereo not given) |  | > 100 µM |  | > 100 µM |  | > 100 µM |  | > 100 µM |  | > 100 µM |  | > 100 µM |  | 93.8 µM |  | > 100 µM
NCCO/C=C/C(N)C(=O)O (stereo not given) |  | > 100 µM |  | > 100 µM |  |  |  | > 100 µM |  | > 100 µM |  | > 100 µM |  |  |  | > 100 µM
CC1(C)CC(C)(C)c2cc(NC(=S)Nc3ccc([N+](=O)[O-])cc3)ccc2S1 | 24.1 µM | > 100 µM | 17.9 µM | > 53.9 µM | 19.1 µM | > 100 µM | 31 µM | 99.8 µM | 17.9 µM | 51.8 µM | 21 µM | > 76.1 µM | 12.9 µM | > 88.2 µM | 17.1 µM | > 52.6 µM
